According to PMC12136037, “Type II kinase inhibitors that target Parkinson’s disease–associated LRRK2” (Science Advances, 2025):

How the values were obtained:
Assay in all cases: 33PanQinase kinome-wide selectivity profile (Reaction Biology)
Assay type in all cases: biochemical
350 wild-type kinases [1] = target: T1, 350 wild-type kinases (Homo sapiens, UniProt O43293); settings: kinase DAPK3, ATP 0,1 µM, singlicate
T1 construct: purchased Reaction Biology (assay service)
Procedure: (§1) Compound RN341 was tested at two concentrations of 1 and 10 μM against a panel of 350 wild-type kinases in the ^33PanQinase assay. The assay was performed by Reaction Biology (www.reactionbiology.com/services/kinase-assays/kinase-panel-screening/).

350 wild-type kinases [2] = target: T2, 350 wild-type kinases (Homo sapiens, UniProt O60285); settings: kinase ARK5, ATP 3 µM, singlicate
T2 construct: purchased Reaction Biology (assay service)
Procedure: as §1

350 wild-type kinases [3] = target: T3, 350 wild-type kinases (Homo sapiens, UniProt O94921); settings: kinase CDK14/CycY, ATP 0,1 µM, singlicate
T3 construct: purchased Reaction Biology (assay service)
Procedure: as §1

350 wild-type kinases [4] = target: T4, 350 wild-type kinases (Homo sapiens, UniProt O96017); settings: kinase CHK2, ATP 1 µM, singlicate
T4 construct: purchased Reaction Biology (assay service)
T4 sequence (O96017 whole entry): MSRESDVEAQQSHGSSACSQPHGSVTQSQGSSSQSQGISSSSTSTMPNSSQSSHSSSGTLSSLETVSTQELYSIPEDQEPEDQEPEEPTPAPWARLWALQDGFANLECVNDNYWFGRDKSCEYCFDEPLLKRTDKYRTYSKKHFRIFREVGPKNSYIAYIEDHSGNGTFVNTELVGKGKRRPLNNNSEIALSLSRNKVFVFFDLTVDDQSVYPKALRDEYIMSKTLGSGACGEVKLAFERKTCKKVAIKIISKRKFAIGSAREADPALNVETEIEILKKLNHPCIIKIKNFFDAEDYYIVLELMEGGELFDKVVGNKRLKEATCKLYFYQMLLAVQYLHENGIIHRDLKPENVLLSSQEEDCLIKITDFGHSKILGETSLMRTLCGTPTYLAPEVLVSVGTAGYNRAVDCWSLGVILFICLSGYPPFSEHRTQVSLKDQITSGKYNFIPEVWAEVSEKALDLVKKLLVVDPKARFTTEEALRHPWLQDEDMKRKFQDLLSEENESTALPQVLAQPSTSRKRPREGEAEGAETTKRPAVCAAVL
Procedure: as §1

350 wild-type kinases [5] = target: T5, 350 wild-type kinases (Homo sapiens, UniProt P00519); settings: kinase ABL1, ATP 0,3 µM, singlicate
T5 construct: purchased Reaction Biology (assay service)
T5 sequence (P00519 whole entry): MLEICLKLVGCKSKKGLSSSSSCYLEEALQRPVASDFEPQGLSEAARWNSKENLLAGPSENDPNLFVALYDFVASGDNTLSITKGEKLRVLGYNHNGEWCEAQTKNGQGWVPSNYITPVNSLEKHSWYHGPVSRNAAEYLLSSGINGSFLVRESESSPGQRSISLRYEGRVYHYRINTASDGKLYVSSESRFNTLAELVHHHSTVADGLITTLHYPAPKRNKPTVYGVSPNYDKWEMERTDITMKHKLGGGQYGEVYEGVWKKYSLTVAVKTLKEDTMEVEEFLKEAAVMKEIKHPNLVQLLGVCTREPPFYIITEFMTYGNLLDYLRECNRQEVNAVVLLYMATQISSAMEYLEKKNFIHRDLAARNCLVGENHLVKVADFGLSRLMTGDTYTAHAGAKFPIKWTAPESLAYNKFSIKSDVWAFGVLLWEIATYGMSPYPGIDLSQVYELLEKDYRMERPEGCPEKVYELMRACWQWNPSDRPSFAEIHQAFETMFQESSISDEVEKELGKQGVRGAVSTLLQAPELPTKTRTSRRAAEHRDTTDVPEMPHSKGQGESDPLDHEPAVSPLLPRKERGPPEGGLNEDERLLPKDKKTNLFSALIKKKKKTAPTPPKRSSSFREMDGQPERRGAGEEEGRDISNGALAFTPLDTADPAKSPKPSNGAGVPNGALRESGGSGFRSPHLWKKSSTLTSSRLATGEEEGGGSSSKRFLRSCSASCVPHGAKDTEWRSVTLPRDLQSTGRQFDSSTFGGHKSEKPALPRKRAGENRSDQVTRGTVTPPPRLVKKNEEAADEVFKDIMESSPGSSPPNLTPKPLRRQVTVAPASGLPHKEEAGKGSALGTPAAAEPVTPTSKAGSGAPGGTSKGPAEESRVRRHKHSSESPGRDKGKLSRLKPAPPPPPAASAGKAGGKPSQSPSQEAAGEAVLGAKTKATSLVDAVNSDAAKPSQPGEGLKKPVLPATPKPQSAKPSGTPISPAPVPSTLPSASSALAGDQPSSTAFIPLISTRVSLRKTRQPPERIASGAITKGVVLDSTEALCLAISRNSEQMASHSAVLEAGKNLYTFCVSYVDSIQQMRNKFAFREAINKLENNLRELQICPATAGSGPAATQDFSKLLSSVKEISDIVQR
Procedure: as §1

350 wild-type kinases [6] = target: T6, 350 wild-type kinases (Homo sapiens, UniProt P15056); settings: kinase BRAF, ATP 1 µM, singlicate
T6 construct: purchased Reaction Biology (assay service)
Procedure: as §1

350 wild-type kinases [7] = target: T7, 350 wild-type kinases (Homo sapiens, UniProt P31749); settings: kinase AKT1, ATP 1 µM, singlicate
T7 construct: purchased Reaction Biology (assay service)
Procedure: as §1

350 wild-type kinases [8] = target: T8, 350 wild-type kinases (Homo sapiens, UniProt P33981); settings: 1 μM, TTK; read-out: TTK activity, % of control
T8 construct: purchased Reaction Biology (assay service)
Procedure: as §1

350 wild-type kinases [9] = target: T9, 350 wild-type kinases (Homo sapiens, UniProt P36896); settings: kinase ACVR1B, ATP 3 µM, singlicate
T9 construct: purchased Reaction Biology (assay service)
Procedure: as §1

350 wild-type kinases [10] = target: T10, 350 wild-type kinases (Homo sapiens, UniProt P42684); settings: kinase ABL2, ATP 0,3 µM, singlicate
T10 construct: purchased Reaction Biology (assay service)
T10 sequence (P42684 whole entry): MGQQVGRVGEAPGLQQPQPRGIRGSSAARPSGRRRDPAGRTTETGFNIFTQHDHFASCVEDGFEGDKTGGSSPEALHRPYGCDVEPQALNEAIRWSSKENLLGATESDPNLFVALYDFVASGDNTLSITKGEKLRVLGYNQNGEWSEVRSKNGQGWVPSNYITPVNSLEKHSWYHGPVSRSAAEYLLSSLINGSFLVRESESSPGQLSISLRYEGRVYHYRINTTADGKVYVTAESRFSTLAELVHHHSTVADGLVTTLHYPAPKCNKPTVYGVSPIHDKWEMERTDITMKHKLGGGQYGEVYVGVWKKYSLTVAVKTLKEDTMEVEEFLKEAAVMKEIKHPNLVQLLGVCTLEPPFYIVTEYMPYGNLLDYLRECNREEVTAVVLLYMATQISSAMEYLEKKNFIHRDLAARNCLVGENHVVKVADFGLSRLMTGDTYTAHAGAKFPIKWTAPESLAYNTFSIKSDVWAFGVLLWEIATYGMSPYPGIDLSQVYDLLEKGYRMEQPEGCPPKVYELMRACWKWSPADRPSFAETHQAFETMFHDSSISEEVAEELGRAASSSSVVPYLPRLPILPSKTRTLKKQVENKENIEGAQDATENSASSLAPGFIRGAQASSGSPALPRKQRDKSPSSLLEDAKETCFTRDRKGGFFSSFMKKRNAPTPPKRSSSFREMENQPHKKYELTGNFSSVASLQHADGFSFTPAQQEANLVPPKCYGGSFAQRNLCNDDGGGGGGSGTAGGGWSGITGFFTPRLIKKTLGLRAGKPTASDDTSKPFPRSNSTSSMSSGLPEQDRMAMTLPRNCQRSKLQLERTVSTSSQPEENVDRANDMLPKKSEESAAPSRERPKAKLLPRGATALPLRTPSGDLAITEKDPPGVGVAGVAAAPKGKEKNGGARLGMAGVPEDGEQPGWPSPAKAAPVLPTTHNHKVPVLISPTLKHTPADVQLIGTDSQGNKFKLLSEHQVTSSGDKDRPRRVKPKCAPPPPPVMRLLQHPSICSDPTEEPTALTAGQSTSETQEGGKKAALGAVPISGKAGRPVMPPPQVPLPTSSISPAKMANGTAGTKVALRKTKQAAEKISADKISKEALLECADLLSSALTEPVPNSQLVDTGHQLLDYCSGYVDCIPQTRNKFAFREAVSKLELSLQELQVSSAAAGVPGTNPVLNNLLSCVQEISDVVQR
Procedure: as §1

350 wild-type kinases [11] = target: T11, 350 wild-type kinases (Homo sapiens, UniProt P49760); settings: kinase CLK2, ATP 0,3 µM, singlicate
T11 construct: purchased Reaction Biology (assay service)
Procedure: as §1

350 wild-type kinases [12] = target: T12, 350 wild-type kinases (Homo sapiens, UniProt P49761); settings: kinase CLK3, ATP 0,3 µM, singlicate
T12 construct: purchased Reaction Biology (assay service)
Procedure: as §1

350 wild-type kinases [13] = target: T13, 350 wild-type kinases (Homo sapiens, UniProt P53355); settings: kinase DAPK1, ATP 0,1 µM, singlicate
T13 construct: purchased Reaction Biology (assay service)
T13 sequence (P53355 whole entry): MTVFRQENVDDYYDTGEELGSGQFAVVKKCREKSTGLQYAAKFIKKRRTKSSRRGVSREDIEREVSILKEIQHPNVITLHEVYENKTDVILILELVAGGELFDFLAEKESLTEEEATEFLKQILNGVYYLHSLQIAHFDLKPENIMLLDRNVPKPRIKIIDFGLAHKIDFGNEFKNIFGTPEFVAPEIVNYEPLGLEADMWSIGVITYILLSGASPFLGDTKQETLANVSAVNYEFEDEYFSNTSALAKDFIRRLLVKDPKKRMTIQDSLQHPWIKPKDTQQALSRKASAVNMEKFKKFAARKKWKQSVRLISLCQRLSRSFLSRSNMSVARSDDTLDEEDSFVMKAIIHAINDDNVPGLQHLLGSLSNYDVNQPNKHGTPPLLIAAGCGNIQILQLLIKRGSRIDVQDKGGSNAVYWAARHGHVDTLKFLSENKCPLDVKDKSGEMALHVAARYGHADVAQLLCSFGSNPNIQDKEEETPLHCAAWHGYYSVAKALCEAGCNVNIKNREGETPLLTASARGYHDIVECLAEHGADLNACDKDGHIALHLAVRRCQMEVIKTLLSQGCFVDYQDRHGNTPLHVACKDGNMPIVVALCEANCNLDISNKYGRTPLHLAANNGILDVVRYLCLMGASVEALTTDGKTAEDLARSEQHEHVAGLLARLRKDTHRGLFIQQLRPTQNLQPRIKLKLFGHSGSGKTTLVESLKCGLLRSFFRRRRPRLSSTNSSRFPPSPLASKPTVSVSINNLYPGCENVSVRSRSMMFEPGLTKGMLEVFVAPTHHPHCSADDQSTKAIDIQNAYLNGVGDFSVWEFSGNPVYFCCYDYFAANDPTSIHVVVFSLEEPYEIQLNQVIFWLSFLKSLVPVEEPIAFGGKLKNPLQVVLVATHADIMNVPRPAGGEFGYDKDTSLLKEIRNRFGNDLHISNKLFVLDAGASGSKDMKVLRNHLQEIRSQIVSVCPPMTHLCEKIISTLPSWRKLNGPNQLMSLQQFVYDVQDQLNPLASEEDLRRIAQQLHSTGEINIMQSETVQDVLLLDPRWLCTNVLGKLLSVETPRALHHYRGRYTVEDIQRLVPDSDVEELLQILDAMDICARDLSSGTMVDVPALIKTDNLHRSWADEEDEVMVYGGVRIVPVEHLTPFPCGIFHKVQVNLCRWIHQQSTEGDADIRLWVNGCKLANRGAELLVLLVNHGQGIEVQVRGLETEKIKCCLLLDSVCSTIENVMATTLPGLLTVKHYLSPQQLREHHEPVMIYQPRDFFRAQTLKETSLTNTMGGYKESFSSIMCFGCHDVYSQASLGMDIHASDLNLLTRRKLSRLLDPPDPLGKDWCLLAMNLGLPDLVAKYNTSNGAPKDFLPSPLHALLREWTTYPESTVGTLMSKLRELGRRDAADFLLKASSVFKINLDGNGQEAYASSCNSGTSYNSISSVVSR
Procedure: as §1

350 wild-type kinases [14] = target: T14, 350 wild-type kinases (Homo sapiens, UniProt Q00526); settings: ATP 3 µM, singlicate; for Residual activity (% of control), CDK3/CycC: kinase CDK3/CycC; for Residual activity (% of control), CDK3/CycE1: kinase CDK3/CycE1
T14 construct: purchased Reaction Biology (assay service)
T14 sequence (Q00526 whole entry): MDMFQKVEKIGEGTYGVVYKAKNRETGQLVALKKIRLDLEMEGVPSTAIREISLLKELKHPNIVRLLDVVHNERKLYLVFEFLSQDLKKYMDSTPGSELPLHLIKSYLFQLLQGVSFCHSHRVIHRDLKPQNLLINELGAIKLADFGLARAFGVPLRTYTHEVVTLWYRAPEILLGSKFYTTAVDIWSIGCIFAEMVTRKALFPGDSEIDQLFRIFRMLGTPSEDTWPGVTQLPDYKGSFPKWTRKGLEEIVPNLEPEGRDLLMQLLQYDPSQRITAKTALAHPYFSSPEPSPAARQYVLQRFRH
Procedure: as §1

350 wild-type kinases [15] = target: T15, 350 wild-type kinases (Homo sapiens, UniProt Q00534); settings: singlicate; for Residual activity (% of control), CDK6/CycD1: kinase CDK6/CycD1, ATP 3 µM; for Residual activity (% of control), CDK6/CycD2: kinase CDK6/CycD2, ATP 10 µM; for Residual activity (% of control), CDK6/CycD3: kinase CDK6/CycD3, ATP 30 µM
T15 construct: purchased Reaction Biology (assay service)
T15 sequence (Q00534 whole entry): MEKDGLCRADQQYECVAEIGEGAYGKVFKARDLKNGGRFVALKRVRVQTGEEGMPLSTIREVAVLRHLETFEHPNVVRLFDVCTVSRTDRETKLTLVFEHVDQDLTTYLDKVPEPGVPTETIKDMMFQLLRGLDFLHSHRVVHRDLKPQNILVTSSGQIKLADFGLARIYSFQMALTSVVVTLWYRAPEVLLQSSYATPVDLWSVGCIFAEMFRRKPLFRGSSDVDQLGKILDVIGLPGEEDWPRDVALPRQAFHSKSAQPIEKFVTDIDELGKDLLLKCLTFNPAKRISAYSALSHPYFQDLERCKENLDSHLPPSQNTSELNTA
Procedure: as §1

350 wild-type kinases [16] = target: T16, 350 wild-type kinases (Homo sapiens, UniProt Q00537); settings: kinase CDK17/p35NCK, ATP 3 µM, singlicate
T16 construct: purchased Reaction Biology (assay service)
Procedure: as §1

350 wild-type kinases [17] = target: T17, 350 wild-type kinases (Homo sapiens, UniProt Q13557); settings: kinase CAMK2D, ATP 1 µM, singlicate
T17 construct: purchased Reaction Biology (assay service)
Procedure: as §1

350 wild-type kinases [18] = target: T18, 350 wild-type kinases (Homo sapiens, UniProt Q14004); settings: kinase CDK13/CycK, ATP 0,1 µM, singlicate
T18 construct: purchased Reaction Biology (assay service)
Procedure: as §1

350 wild-type kinases [19] = target: T19, 350 wild-type kinases (Homo sapiens, UniProt Q5VT25); settings: kinase CDC42BPA, ATP 0,1 µM, singlicate
T19 construct: purchased Reaction Biology (assay service)
Procedure: as §1

350 wild-type kinases [20] = target: T20, 350 wild-type kinases (Homo sapiens, UniProt Q8N568); settings: kinase DCAMKL2, ATP 1 µM, singlicate
T20 construct: purchased Reaction Biology (assay service)
Procedure: as §1

350 wild-type kinases [21] = target: T21, 350 wild-type kinases (Homo sapiens, UniProt Q8N5S9); settings: kinase CAMKK1, ATP 3 µM, singlicate
T21 construct: purchased Reaction Biology (assay service)
Procedure: as §1

350 wild-type kinases [22] = target: T22, 350 wild-type kinases (Homo sapiens, UniProt Q9HCP0); settings: kinase CK1gamma1, ATP 0,1 µM, singlicate
T22 construct: purchased Reaction Biology (assay service)
Procedure: as §1

350 wild-type kinases [23] = target: T23, 350 wild-type kinases (Homo sapiens, UniProt Q9Y5S2); settings: kinase CDC42BPB, ATP 0,1 µM, singlicate
T23 construct: purchased Reaction Biology (assay service)
Procedure: as §1

350 wild-type kinases [24] = settings: 10 μM, 350 kinases
Procedure: as §1

## CCSc1nc(NC)c2c(-c3cccc(NC(=O)Nc4cc(C(C)(C)C)nn4-c4ccc(C)cc4)c3)c[nH]c2n1 [Compound 32]
350 wild-type kinases [1]; Assay Conc. 1.0E-05 M
  Residual activity (% of control), DAPK3: 82 % of control
350 wild-type kinases [1]; Assay Conc. 1.0E-06 M
  Residual activity (% of control), DAPK3: 98 % of control
350 wild-type kinases [2]; Assay Conc. 1.0E-05 M
  Residual activity (% of control), ARK5: 99 % of control
350 wild-type kinases [2]; Assay Conc. 1.0E-06 M
  Residual activity (% of control), ARK5: 105 % of control
350 wild-type kinases [3]; Assay Conc. 1.0E-05 M
  Residual activity (% of control), CDK14/CycY: 75 % of control
350 wild-type kinases [3]; Assay Conc. 1.0E-06 M
  Residual activity (% of control), CDK14/CycY: 102 % of control
350 wild-type kinases [4]; Assay Conc. 1.0E-05 M
  Residual activity (% of control), CHK2: 64 % of control
350 wild-type kinases [4]; Assay Conc. 1.0E-06 M
  Residual activity (% of control), CHK2: 90 % of control
350 wild-type kinases [5]; Assay Conc. 1.0E-05 M
  Residual activity (% of control), ABL1: 70 % of control
350 wild-type kinases [5]; Assay Conc. 1.0E-06 M
  Residual activity (% of control), ABL1: 102 % of control
350 wild-type kinases [6]; Assay Conc. 1.0E-05 M
  Residual activity (% of control), BRAF: 65 % of control
350 wild-type kinases [6]; Assay Conc. 1.0E-06 M
  Residual activity (% of control), BRAF: 98 % of control
350 wild-type kinases [7]; Assay Conc. 1.0E-05 M
  Residual activity (% of control), AKT1: 91 % of control
350 wild-type kinases [7]; Assay Conc. 1.0E-06 M
  Residual activity (% of control), AKT1: 103 % of control
350 wild-type kinases [8]
  remaining activity at 1 µM: < 50%
350 wild-type kinases [9]; Assay Conc. 1.0E-05 M
  Residual activity (% of control), ACVR1B: 76 % of control
350 wild-type kinases [9]; Assay Conc. 1.0E-06 M
  Residual activity (% of control), ACVR1B: 93 % of control
350 wild-type kinases [10]; Assay Conc. 1.0E-05 M
  Residual activity (% of control), ABL2: 73 % of control
350 wild-type kinases [10]; Assay Conc. 1.0E-06 M
  Residual activity (% of control), ABL2: 107 % of control
350 wild-type kinases [11]; Assay Conc. 1.0E-05 M
  Residual activity (% of control), CLK2: 86 % of control
350 wild-type kinases [11]; Assay Conc. 1.0E-06 M
  Residual activity (% of control), CLK2: 109 % of control
350 wild-type kinases [12]; Assay Conc. 1.0E-05 M
  Residual activity (% of control), CLK3: 66 % of control
350 wild-type kinases [12]; Assay Conc. 1.0E-06 M
  Residual activity (% of control), CLK3: 90 % of control
350 wild-type kinases [13]; Assay Conc. 1.0E-05 M
  Residual activity (% of control), DAPK1: 78 % of control
350 wild-type kinases [13]; Assay Conc. 1.0E-06 M
  Residual activity (% of control), DAPK1: 95 % of control
350 wild-type kinases [14]; Assay Conc. 1.0E-05 M
  Residual activity (% of control), CDK3/CycC: 65 % of control
  Residual activity (% of control), CDK3/CycE1: 75 % of control
350 wild-type kinases [14]; Assay Conc. 1.0E-06 M
  Residual activity (% of control), CDK3/CycC: 106 % of control
  Residual activity (% of control), CDK3/CycE1: 115 % of control
350 wild-type kinases [15]; Assay Conc. 1.0E-05 M
  Residual activity (% of control), CDK6/CycD1: 74 % of control
  Residual activity (% of control), CDK6/CycD2: 80 % of control
  Residual activity (% of control), CDK6/CycD3: 73 % of control
350 wild-type kinases [15]; Assay Conc. 1.0E-06 M
  Residual activity (% of control), CDK6/CycD1: 127 % of control
  Residual activity (% of control), CDK6/CycD2: 109 % of control
  Residual activity (% of control), CDK6/CycD3: 94 % of control
350 wild-type kinases [16]; Assay Conc. 1.0E-05 M
  Residual activity (% of control), CDK17/p35NCK: 53 % of control
350 wild-type kinases [16]; Assay Conc. 1.0E-06 M
  Residual activity (% of control), CDK17/p35NCK: 89 % of control
350 wild-type kinases [17]; Assay Conc. 1.0E-05 M
  Residual activity (% of control), CAMK2D: 67 % of control
350 wild-type kinases [17]; Assay Conc. 1.0E-06 M
  Residual activity (% of control), CAMK2D: 104 % of control
350 wild-type kinases [18]; Assay Conc. 1.0E-05 M
  Residual activity (% of control), CDK13/CycK: 71 % of control
350 wild-type kinases [18]; Assay Conc. 1.0E-06 M
  Residual activity (% of control), CDK13/CycK: 83 % of control
350 wild-type kinases [19]; Assay Conc. 1.0E-05 M
  Residual activity (% of control), CDC42BPA: 111 % of control
350 wild-type kinases [19]; Assay Conc. 1.0E-06 M
  Residual activity (% of control), CDC42BPA: 122 % of control
350 wild-type kinases [20]; Assay Conc. 1.0E-05 M
  Residual activity (% of control), DCAMKL2: 91 % of control
350 wild-type kinases [20]; Assay Conc. 1.0E-06 M
  Residual activity (% of control), DCAMKL2: 103 % of control
350 wild-type kinases [21]; Assay Conc. 1.0E-05 M
  Residual activity (% of control), CAMKK1: 122 % of control
350 wild-type kinases [21]; Assay Conc. 1.0E-06 M
  Residual activity (% of control), CAMKK1: 114 % of control
350 wild-type kinases [22]; Assay Conc. 1.0E-05 M
  Residual activity (% of control), CK1gamma1: 97 % of control
350 wild-type kinases [22]; Assay Conc. 1.0E-06 M
  Residual activity (% of control), CK1gamma1: 92 % of control
350 wild-type kinases [23]; Assay Conc. 1.0E-05 M
  Residual activity (% of control), CDC42BPB: 57 % of control
350 wild-type kinases [23]; Assay Conc. 1.0E-06 M
  Residual activity (% of control), CDC42BPB: 84 % of control
350 wild-type kinases [24]
  number of kinases inhibited with less than 30% residual activity: 10
